Among the data in patent US20260130928A1, “COMBINATION OF AKR1C3 ACTIVATED ANTICANCER PRODRUG COMPOUND AND ANALGESIC DRUG FOR TREATING CANCER PATIENTS ACCOMPANIED BY PAIN” (ASCENTAWITS PHARMACEUTICALS, LTD., priority 2022, published 2026) are IC50 values, retold here.

This assay concerns H460 cell line. The assay is described as follows: Cell proliferation inhibition by combining Naproxen or TH-3021 and AST-3424 in different sequence of administration (CTG). The settings on record: Homo sapiens, AST-3424 alone 2 h as reference, H460. In kind it is cell-based, human. The method, then: The following are the different treatment methods. […] The plate was shaken gently to ensure uniform mixing, and placed in the incubator for 2 hours. […] The plate was shaken gently to ensure uniform mixing, and placed in the incubator for 2 hours. Subsequently, the plate was washed to remove the compound, and placed in the incubator at 37° C. with 5% CO2 for further 72 hours. […] The plate was shaken gently to ensure uniform mixing, and placed in the incubator for 2 hours. Subsequently, the plate was washed to remove the compounds, and placed in the incubator at 37° C. with 5% CO2 for 72 hours. […] The plate was shaken gently to ensure uniform mixing, and placed in the incubator for 2 hours. […] The plate was shaken gently to ensure uniform mixing, and placed in the incubator for 2 hours. Subsequently, the plate was washed to remove the compounds, and placed in the incubator at 37° C. with 5% CO2 for further 72 hours. […] The plate was shaken gently to ensure uniform mixing, and placed in the incubator for 2 hours. […] The plate was shaken gently to ensure uniform mixing, and placed in the incubator for 2 hours. Subsequently, the plate was washed to remove the compounds, and placed in the incubator at 37° C. with 5% CO2 for further 72 hours. b) Administrating single drug: after 24 hours of cell seeding, the compound was administered alone. […] The plate was shaken gently to ensure uniform mixing, and placed in the incubator at 37° C. with 5% CO2 for 2 hours. Subsequently, the compound was washed off, and each well was added with fresh medium. The plate was placed in the incubator at 37° C. with 5% CO2 for further 72 hours.

What is called IC50 is the point on the concentration scale where inhibition reaches its midpoint.

Consider `C[C@H](OP(=O)(N1CC1)N1CC1)c1ccc([N+](=O)[O-])c(Oc2cccc(C(=O)N(C)C)c2)c1` [AST-3424], for which the IC50 is 1.08 nM (NCI-H460, 2 h, Group 2: TH-3021 3 μM or Naproxen 400 μM + AST-3424 2 h simultaneously); 0.88 nM (NCI-H460, Group 1: TH-3021 3 μM or Naproxen 400 μM 2 h pretreatment, washed off, then AST-3424 2 h); 1 nM (NCI-H460, Group 3: AST-3424 2 h pretreatment, washed off, then TH-3021 3 μM or Naproxen 400 μM 2 h); 1.14 nM (NCI-H460, Group 4: TH-3021 3 μM or Naproxen 400 μM 2 h pretreatment, not washed off, AST-3424 2 h cotreatment).
